According to paper PMC8875392, “Design and Characterization of Myristoylated and Non-Myristoylated Peptides Effective against Candida spp. Clinical Isolates” (International Journal of Molecular Sciences, 2022):
Where no end group is shown, it is not given here.

Tests used:
rabbit erythrocytes = conditions: 5 µM
Protocol: The hemolytic assay was performed on rabbit erythrocytes (Rockland) maintained in Alsever’s solution (Innovative Research). Briefly, after the removal of Alsever’s solution, the erythrocytes were resuspended in PBS and counted in a hemocytometer. A suspension of 5,000,000 red blood cells was incubated with four dilutions (from 5 µm to 50 µm) of the six peptides in a 96-well microplate. As a negative control, erythrocytes were incubated without the peptides, while as a positive control, erythrocyte was added with triton 10% v/v. The plate was incubated at 37 °C for 2 h and subsequently centrifuged at 1200 rpm × 3 min to separate the pellet from the supernatant. The absorbance of the supernatant was measured at 492 nm. Each point was made in triplicate. The relative OD compared to the positive control defined the percentage of hemolysis [71]. Statistical analysis was performed using two-way ANOVA analysis followed by Bonferroni’s post-test.

[1] = tested on: C. auris clinical isolates; format: cell-based, Candida auris; conditions: clinical isolates, 16 h
Protocol: (§1) The antifungal activity of AMPs was determined against 50 clinical isolates, 10 for each of the following Candida species: C. albicans, C. tropicalis, C. glabrata, C. parapsilosis, and C. auris. The latter were derived from patients with positive blood cultures in four hospitals in India, with known resistance profiles to fluconazole, voriconazole, and echinocandins. Yeast cells were grown in Brain Heart Infusion (BHI) medium (Sigma-Aldrich, Gillingham, UK) for 16 h at 37 °C in a 150-rpm orbital shaker. Cells were then sub-inoculated in a fresh BHI medium and grown to an optical density (OD) of 0.3. The turbidity of the inoculum was adjusted to 0.5 McFarland and diluted 1:500 in RPMI 1640 broth, corresponding to around […].
(§2) Minimal inhibitory concentrations (MICs) were determined by Broth microdilution susceptibility tests, according to The Clinical and Laboratory Standards Institute (CLSI) international guidelines. A fungal suspension of 0.5 MacFarland was diluted 1:500 in RPMI 1640 broth and incubated in 96 multi-well plates containing AMPs at different concentrations ranging from 0.125 to 256 μg/mL. In this range of concentration, lipopeptides were completely soluble. […] The MIC90 represents the value at which ≥90% of the strains within a test population were inhibited.

[2] = tested on: C. parapsilosis clinical isolates; format: cell-based, Candida parapsilosis; conditions: clinical isolates, 16 h
Protocol: as §1, §2

[3] = tested on: C. albicans clinical isolates; format: cell-based, Candida albicans; conditions: 16 h
Protocol: as §1, §2

[4] = tested on: C. tropicalis clinical isolates; format: cell-based, Candida tropicalis; conditions: clinical isolates, 16 h
Protocol: as §1, §2

[5] = tested on: C. glabrata clinical isolates; format: cell-based, Candida glabrata; conditions: 16 h
Protocol: as §1, §2

[6] = tested on: Galleria mellonella larvae; test: In vivo peptide toxicity in Galleria mellonella model; conditions: uninfected larvae, groups of ten, peptide 640 µg/mL, single injection, 30 °C
Protocol: Multidrug-resistant C. auris was chosen as a representative species for in vivo studies. […] Groups of ten G. mellonella larvae were infected with C. auris and treated with the Pep-B and Myr-B peptides at a concentration of 640 µg/mL (about 400 µM).
Ten larvae (250–320 mg each) were selected at random for each step in the procedure. Any larvae with darkening of the cuticle were discarded. The test compounds and yeast were injected into the hemocoel in water buffer through the last left proleg (Insumed 30G Pic, Italy, syringe volume 0.5 mL, needle size 30G). The larvae were incubated in the dark for 3 days, and mortality was recorded daily.
For the peptide efficacy experiment, ten larvae were injected into the last left proleg with a pre-determined infective dose of yeast and the dose of peptides at the same time in a final volume of 10 μL and incubated at 30 °C. Each step in the procedure included six groups of 10 larvae: C. auris-infected larvae (10^7 CFU), infected and treated larvae with peptide B (640 μg/mL), infected and treated larvae with peptide Myr-B (640 μg/mL), treated larvae with peptide B (640 μg/mL), treated larvae with peptide Myr-B (640 μg/mL), and vehicle-injected control (water). The mortality was recorded daily for 3 days.

Sequence | hemolysis (rabbit erythrocytes) | MIC90 [1] | MIC [2] | MIC90 [2] | MIC [3] | MIC90 [3] | MIC90 [4] | MIC [5] | MIC90 [5] | Peptide toxicity, DAY 1 Dead [6] | Peptide toxicity, DAY 2 Dead [6] | Peptide toxicity, DAY 3 Dead [6]
WFGKLYRGITK [Pep-A] | 0.1% | >256 µg/mL | > 256 mg/L | >256 µg/mL | > 256 mg/L | >256 µg/mL | >256 µg/mL | > 256 mg/L | >256 µg/mL | – | – | –
WRGITKVVKKV [Pep-B] | – | >256 µg/mL | > 256 mg/L | >256 µg/mL | > 256 mg/L | >256 µg/mL | >256 µg/mL | > 256 mg/L | >256 µg/mL | 3 | 5 | 9
WVVKKVKGLLK [Pep-C] | – | >256 µg/mL | > 256 mg/L | >256 µg/mL | > 256 mg/L | >256 µg/mL | >256 µg/mL | > 256 mg/L | >256 µg/mL | – | – | –
